Assay results as given in US10542753B2, “Compositions for improving budbreak and flowering” (Zelam Limited, priority 2015, dated 2020).

Key:
Granny Smith Apples = assay: Trial 8: sprayed trees, budbreak, flowering and fruit set on fruiting spurs; assay type: in vivo
Protocol: Trial 8: Use on Granny Smith Apples was evaluated in New Plymouth, New Zealand following a poor winter chill in 2013. Treatments were applied on 9 Aug. 2013 at 200 L/Ha using a manual backpack sprayer in a replicated trial (4 replications of two tree plots).

Gold3 [1] = assay: Trial 5: sprayed trial after poor winter chill (Bay of Plenty); assay type: in vivo, Actinidia chinensis Planch. var. chinensis 'Zesy002'
Protocol: (§1) These 2014 sprayed trials were performed in the Bay of Plenty (Trial 5, five replicates, each a bay comprising two vines with ten assessment canes per rep, five on each side of the bay) and Hawkes Bay, NZ (Trial 6, four replicates, each a bay comprising four vines with twenty assessment canes per rep, five from each vine). HC (700 litres/Ha) and Examples 9 and 10 (800 litres/Ha) were sprayed on 16-Aug (37 DBNB, Trial 5) and 11-Aug (30 DBNB, Trial 6). FIG. 7 illustrates the progression of budbreak in Trial 5 and FIG. 8 illustrates the progression of budbreak in Trial 6.
(§2) Under current management practices Gold3 growers require at least about 1.8 single flowers per winter bud (SFWB) to achieve the recommended packout of 17,000 trays/Ha.

Hayward kiwifruit = assay: Trial 1: cane painting, budbreak and flowering; assay type: in vivo, Actinidia deliciosa; conditions: for Spread of BB: spread = 4x standard deviation; for Advance in Midpoint / Reduction in Spread: vs untreated
Protocol: A cane painting experiment was performed in a Hayward kiwifruit orchard in the Bay of Plenty New Zealand in 2010 following a winter with average winter chill. Low-medium vigour canes of 1.6 m average length from 36 vines were tagged and either left untreated or painted with one of HC, Examples 1-4 and Comparative Example 1. The date of painting (6-Aug) was 56 days before natural budbreak (DBNB). Budbreak (BBCH stage 9) and flowering (BBCH stage 60) were determined based on the photographs published by Salinero et al., 2009, “Phenological growth stages of kiwifruit (Actinidia deliciosa ‘Hayward’)”, Scientia Horticulturae 121, 27-31, which is hereby incorporated by reference in its entirety. Graphed and tabulated data represent averages of the 36 replicates and are normalised based on the number of winter buds on each cane.
FIG. 1 illustrates the progression of budbreak in Trial 1. FIG. 2 illustrates the progression of flowering in Trial 1. The progress curves depicted in FIGS. 1 and 2 were fitted to a cumulative normal curve to calculate the midpoints of budbreak and flowering (the dates corresponding to a 50% response) and spread of response time (defined as 4× standard deviation) as summarised in Tables 1 and 2.

Gold3 kiwifruit = assay: Trial 4: cane painting, budbreak and flowering; assay type: in vivo, Actinidia chinensis Planch. var. chinensis 'Zesy002'; set-up: Spread of BB / Advance in Midpoint / Reduction in Spread: unit not given here; conditions: for KFFS: king flowers per floral shoot; for KFWB: king flowers per winter bud; for Advance in Midpoint / Reduction in Spread: vs untreated
Protocol: This cane painting experiment was performed in a Bay of Plenty orchard in 2013 following a winter with poor chill in the key months of May and June. Low-medium vigour canes typical of the orchard were painted with either HC or Example 9 on 13-Aug and 20-Aug, 34 and 27 days before natural budbreak which occurred on 16-Sep. […] FIG. 5 illustrates the progression of budbreak and FIG. 6 illustrates the progress of flowering in Trial 4.

Gold3 [2] = assay: Trial 6: sprayed trial after good winter chill (Hawkes Bay); assay type: in vivo, Actinidia chinensis Planch. var. chinensis 'Zesy002'
Protocol: as §1, §2

Hayward kiwifruit vines = assay: Trial 2: cane painting, salicylic acid dose-response, budbreak; assay type: in vivo, Actinidia deliciosa
Protocol: A cane painting experiment was performed in 2012 in a Hayward kiwifruit orchard in Taranaki, New Zealand. Canes of 1.2 m average length from 33 vines were tagged and either left untreated or painted with one of HC, Examples 5-8 and Comparative Examples 2 and 3 on 9-Aug, 50 DBNB (28-Sep). Midpoints and spread were calculated for budbreak (Table 3) but there were insufficient data to perform the calculations for flowering. […] FIG. 3 illustrates the progression of budbreak in Trial 2. FIG. 4 illustrates the progress of flowering in Trial 2.

Psa = assay: Trial 3: whole-vine spray in Psa-infected orchard, Psa leaf spotting; assay type: in vivo, Hayward kiwifruit vines; conditions: for % Incidence: Psa leaf spotting
Text: A trial in which whole Hayward kiwifruit vines were sprayed was established in the Bay of Plenty in 2013. There were twelve replicates and two sets of untreated vines. HC (700 litres/Ha) and the composition of Example 8 (800 litres/Ha) were applied on three dates using a boom sprayer designed to produce spray deposition typical of an orchard air blast sprayer. Of particular interest in this trial was the prevalence of Psa leaf spotting that became evident in late spring, particularly in the early HC-sprayed vines. Vines were assessed for Psa leaf spotting by rating 40 randomly selected leaves (10 on each side of the two leaders that made up each vine) on a 1-5 scale (Table 4).

[3] = Pahokee muck soil under varying agricultural practices; cited from earlier work
[4] = cited from earlier work
[5] = Trial 5, Bay of Plenty, poor winter chill

With `N#CN` [HC, hydrogen cyanamide] the “% Budbreak 28 DAA” value (Granny Smith Apples; 28 DAA) was 14%, the “% Budbreak 39 DAA” value (Granny Smith Apples; 39 DAA) was 39% and the “% Budbreak 47 DAA” value (Granny Smith Apples; 47 DAA) was 34%. For the same compound, the “% Flowering 54 DAA” value (Granny Smith Apples; 54 DAA) was 66%, the “% Fruit set 74 DAA” value (Granny Smith Apples; 74 DAA) was 16% and the “flower numbers (in words)” value (Gold3 [1]; [5]) was “excessive flower numbers”. The “frequency of double and triple flowers / laterals (in words)” value (Gold3 [1]; [5]) was “nearly doubled”, the “% Double flowers” value (Gold3 [1]; in vivo) was 14.4% and the “% Laterals” value (Gold3 [1]; in vivo) was 18.7%. The “% Triple flowers” value (Gold3 [1]; in vivo) was 4.3%, the KFWB (Gold3 [1]; king flowers per winter bud) was 3.1 and the SFWB (Gold3 [1]; single flowers per winter bud) was 2.5. The “% Budbreak” value (Gold3 [1]; sprayed 16-Aug (37 DBNB)) was 56.9%, the “Spread of BB” value (Hayward kiwifruit; Table 2, flowering) was 7 and the “Advance in Midpoint” value (Hayward kiwifruit; Table 2, flowering) was 6. For the same compound, the “Reduction in Spread” value (Hayward kiwifruit; Table 2, flowering) was 9, the “Spread of BB” value (Hayward kiwifruit; budbreak) was 17 and the “Advance in Midpoint” value (Hayward kiwifruit; budbreak) was 16. For the same compound, the “Reduction in Spread” value (Hayward kiwifruit; budbreak) was 32, the “frequency of lateral flowers (doubles and triples) (in words)” value (Gold3 kiwifruit; Trial 4) was “increased the frequency of lateral flowers” and the “king flowers per winter bud (KFWB) (in words)” value (Gold3 kiwifruit; Trial 4, vs untreated) was “large increases”. For the same compound, the KFFS (Gold3 kiwifruit; painted 27 DBNB (20-Aug)) was 2.35, the KFFS (Gold3 kiwifruit; painted 34 DBNB (13-Aug)) was 2.90 and the KFWB (Gold3 kiwifruit; painted 27 DBNB (20-Aug)) was 1.19. For the same compound, the KFWB (Gold3 kiwifruit; painted 34 DBNB (13-Aug)) was 1.48, the “% Budbreak” value (Gold3 kiwifruit; painted 27 DBNB (20-Aug)) was 72.1% and the “% Deformed” value (Gold3 kiwifruit; painted 27 DBNB (20-Aug)) was 0.2%. The “% Laterals” value (Gold3 kiwifruit; painted 27 DBNB (20-Aug)) was 1.8%, the Floral shoots (Gold3 kiwifruit; painted 27 DBNB (20-Aug)) was 71% and the “Spread of BB” value (Gold3 kiwifruit; painted 27 DBNB (20-Aug)) was 24. The “Advance in Midpoint” value (Gold3 kiwifruit; painted 27 DBNB (20-Aug)) was 15, the “Reduction in Spread” value (Gold3 kiwifruit; painted 27 DBNB (20-Aug)) was 17 and the “% Budbreak” value (Gold3 kiwifruit; painted 34 DBNB (13-Aug)) was 64.5%. For the same compound, the “% Deformed” value (Gold3 kiwifruit; painted 34 DBNB (13-Aug)) was 1.7%, the “% Laterals” value (Gold3 kiwifruit; painted 34 DBNB (13-Aug)) was 9.9% and the Floral shoots (Gold3 kiwifruit; painted 34 DBNB (13-Aug)) was 83%. The “Spread of BB” value (Gold3 kiwifruit; painted 34 DBNB (13-Aug)) was 12, the “Advance in Midpoint” value (Gold3 kiwifruit; painted 34 DBNB (13-Aug)) was 19 and the “Reduction in Spread” value (Gold3 kiwifruit; painted 34 DBNB (13-Aug)) was 30. The “frequency of laterals (in words)” value (Gold3 [2]; Trial 6, Hawkes Bay, good winter chill) was “further increased”, the “% Laterals” value (Gold3 [2]; in vivo) was 31.2% and the KFWB (Gold3 [2]; king flowers per winter bud) was 2.61. For the same compound, the SFWB (Gold3 [2]; single flowers per winter bud) was 1.8, the “% Budbreak” value (Gold3 [2]; sprayed 11-Aug (30 DBNB)) was 55.9% and the “budbreak response (in words)” value (Hayward kiwifruit vines; Trial 2, FIG. 3, vs untreated) was “improved considerably”. The “Spread of BB” value (Hayward kiwifruit vines; budbreak) was 19, the “Advance in Midpoint” value (Hayward kiwifruit vines; budbreak, vs untreated) was 12 and the “Reduction in Spread” value (Hayward kiwifruit vines; budbreak, vs untreated) was 7. The “change in Psa leaf spotting (ANOVA, in words)” value (Psa; HC after the first two applications, Example 8 at all application dates) was “significant increase”, the “% Incidence” value (Psa; applied 15-Aug (46 DBNB)) was 51.5 a % and the “% Incidence” value (Psa; applied 24-Aug (37 DBNB)) was 21.7 b %. For the same compound, the “% Incidence” value (Psa; applied 30-Aug (31 DBNB)) was 18.3 bc %, the Leaf spotting score (Psa; applied 15-Aug (46 DBNB), 40 leaves rated on 1-5 scale) was 1.15 a and the Leaf spotting score (Psa; applied 24-Aug (37 DBNB)) was 0.42 b. For the same compound, the Leaf spotting score (Psa; applied 30-Aug (31 DBNB)) was 0.31 bc.
In the case of `O=C(O)c1ccccc1O` [Salicylic acid, salicylic acid], the Biodegradation [3] is given as “rapid”, the Solubility in ethanol ([4]; 21° C.) is given as 34.87 % w/w and the Solubility in propanol ([4]; 21° C.) is given as 27.36 % w/w. The Solubility in benzene ([4]; 25° C.) was 0.775 % w/w.
